Source: patent US20240285580A1, “COMPOSITIONS AND METHODS FOR EXTENDED RELEASE CROMAKALIM THERAPY” (Qlaris Bio, Inc., priority 2021, published 2024)
Where a name gives a salt, the structure may show the parent alone.

Columns and labels:
[1] = test system: KATP channels; conditions: membrane patches from rabbit mesenteric arterial smooth muscle cells, in the presence of ATP; cited from earlier work
[2] = cited from earlier work
[3] = trials terminated; most likely due to poor bioavailability; cited from earlier work
[4] = in vivo; cited from earlier work
[5] = test system: isolated rat mesenteric lymph vessels; conditions: cited from earlier work; for rhythmic contractions of isolated rat mesenteric lymph vessels: exposure to KATP channel openers
[6] = test system: CD31 and VE-Cadherin; assay: Expression of biomarker proteins for hyperemia and vessel integrity; conditions: compared to Y-27632, a Rho kinase inhibitor
Source text: Furthermore, the effect of levcromakalim on selected biomarkers for hyperemia and perturbations to vessel integrity has been established.

impact on expression of measured proteins indicative of tissue and vessel integrity [6] | SMILES | increase of open-state probability (Popen) of single KATP channels [1] | solubility in water [2] | outcome of human clinical trials [3] | effect on blood pressure [4] | rhythmic contractions of isolated rat mesenteric lymph vessels [5] | contractions of the vessels at increasing concentrations ([5]; increasing concentrations, flow impaired by attenuating frequency and amplitude)
 | CC1(C)Oc2ccc(C#N)cc2C(N2CCCC2=O)C1O (stereo not shown) [Cromakalim, cromakalim] | more than 9 fold | substantially insoluble in water | lack of activity | lower blood pressure | progressively impaired | ultimately abolished the contractions
no significant impact | CC1(C)Oc2ccc(C#N)cc2[C@@H](N2CCCC2=O)[C@@H]1O [Levcromakalim, levcromakalim] |  |  |  |  |  | 
 | CC1=NS(=O)(=O)c2cc(Cl)ccc2N1 [diazoxide] |  |  |  | lower blood pressure | progressively impaired | 
 | Nc1cc(N2CCCCC2)nc(N)[n+]1OS(=O)(=O)[O-] [minoxidil sulfate] |  |  |  |  | progressively impaired | 
